What was measured:
[1] = target: Protein kinase C (PKC) (Homo sapiens) (UniProt O94806+P41743+P17252+P05129+Q05655+P05771+Q05513+Q02156+P24723+Q15139+Q04759); assay: Percent inhibition of protein kinase C at 100 uM; type: protein assay
Vero = assay: Compound was evaluated for its cytotoxicity against Vero cell line; type: functional, Chlorocebus sabaeus
Human betaherpesvirus 5 = assay: Inhibitory activity against human cytomegalo virus (HCMV) using standard plaque reduction assay; type: functional, organism-based
Protein kinase C (PKC) = assay: Inhibition of protein kinase C; type: protein assay
MRC5 [2] = assay: Inhibitory concentration against 2599R HCMV strain of MRC5 cells; type: functional, cell-based; settings: Homo sapiens
MRC5 [3] = assay: Inhibitory concentration against AD169 HCMV strain of MRC5 cells; type: functional, cell-based; settings: Homo sapiens
MRC5 [4] = assay: Inhibitory concentration against C8805 HCMV strain of MRC5 cells; type: functional, cell-based; settings: Homo sapiens
MRC5 [5] = assay: Inhibitory concentration against Davis HCMV strain of MRC5 cells; type: functional, cell-based; settings: Homo sapiens
MRC5 [6] = assay: Inhibitory concentration against Towne HCMV strain of MRC5 cells; type: functional, cell-based; settings: Homo sapiens
MRC5 [7] = assay: Inhibitory concentration against Xba F HCMV strain of MRC5 cells; type: functional, cell-based; settings: Homo sapiens
MRC5 [8] = assay: Inhibitory concentration against 2599R strain of HCMV in MRC5 cells; type: functional, cell-based; settings: Homo sapiens
MRC5 [9] = assay: Inhibitory concentration against AD169 strain of HCMV in MRC5 cells; type: functional, cell-based; settings: Homo sapiens
MRC5 [10] = assay: Inhibitory concentration against Davis strain of HCMV in MRC5 cells; type: functional, cell-based; settings: Homo sapiens
MRC5 [11] = assay: Inhibitory concentration against Towne strain of HCMV in MRC5 cells; type: functional, cell-based; settings: Homo sapiens
MRC5 [12] = assay: Inhibitory concentration against Xba F strain of HCMV in MRC5 cells; type: functional, cell-based; settings: Homo sapiens

Structure (SMILES)	inhibition [1] [%]	CCID50 (Vero) [µM]	IC50 (Human betaherpesvirus 5) [nM]	IC50 (Protein kinase C (PKC)) [nM]	other results
O=C1NC(=O)c2c1c1c3ccccc3[nH]c1c1[nH]c3ccccc3c21 [STAUROSPORINE AGLYCON]	< 50	>125	200		
CCCn1c2ccccc2c2c3c(c4c5ccccc5[nH]c4c21)C(=O)NC3=O		<8	150	50000	
Cn1c2ccccc2c2c3c(c4c5ccccc5[nH]c4c21)C(=O)NC3=O	47	>31	60		
CCn1c2ccccc2c2c3c(c4c5ccccc5[nH]c4c21)C(=O)NC3=O		>125	19	10000	IC50 (MRC5 [2]): 130 nM; IC50 (MRC5 [3]): 19 nM; IC50 (MRC5 [4]): 60 nM; IC50 (MRC5 [5]): 30 nM; IC50 (MRC5 [6]): 90 nM; IC50 (MRC5 [7]): 20 nM
CC(C)n1c2ccccc2c2c3c(c4c5ccccc5[nH]c4c21)C(=O)NC3=O		28	100	50000	
Nc1nc2c(ncn2COC(CO)CO)c(=O)[nH]1 [GANCICLOVIR]		>500	3000		IC50 (MRC5 [8]): 1600 nM; IC50 (MRC5 [9]): 3000 nM; IC50 (MRC5 [10]): 1400 nM; IC50 (MRC5 [11]): 1500 nM; IC50 (MRC5 [12]): > 10000 nM
O=C1NC(=O)c2c1c1c3ccccc3[nH]c1c1c2c2ccccc2n1Cc1ccccc1	23	<31			
CC(C)Cn1c2ccccc2c2c3c(c4c5ccccc5[nH]c4c21)C(=O)NC3=O	71	<8	30		
O=C1NC(=O)c2c1c1c3ccccc3[nH]c1c1c2c2ccccc2n1CC(F)(F)F		<8	70	25000	

Reference: ChEMBL document CHEMBL1133886, “Synthesis of N-alkyl substituted indolocarbazoles as potent inhibitors of human cytomegalovirus replication” (Bioorg Med Chem Lett, 2001)
